Laboratory results: patent US5278181A, “Soluble alkyl[5-[amino (phenyl)methyl]-1H-benzimidazol-2-yl] carbamate anthelmintics” (priority 1992, dated 1994)
Where “and” joins values, the source holds several entries; their conditions need not be identical. Identical values can stand only once.

Assays:
[1] = tested on: Brugia pahangi; assay: Antifilarial dual infection screen in jirds: adult B. pahangi burden; assay type: in vivo, in Mongolian jirds
From the text: Dual infections of the filarial worms Brugia pahangi and Acanthocheilonema viteae in jirds are used routinely for antifilarial screening [McCall, J. W., McTier, T. L., and Rowan, S. J., "In vivo models for evaluating potential antifilarial agents", Onchocerciasis/Filariasis (Proceedings of a Symposium sponsored by the World Health Organization), Kalamazoo, Mich., Apr. 8-10, 23-24 (1986)].
For this dual infection screen, male Mongolian jirds weighing 50-60 g are infected SC with 10 (5 male and 5 female) adult A. viteae, transplanted under sodium pentobarbital anesthesia (48 mg/kg) from donor hamsters infected SC 8 weeks earlier. Two weeks later, 20 (10 male and 10 female) adult B. pahangi, taken from donor jirds infected IP 8 weeks earlier, are transplanted into the peritoneal cavity of each jird under sodium pentobarbital anesthesia. After an additional week, when the jirds have acceptable levels of microfilaremia, they are randomly allocated to treatment groups of 3 animals each and a nontreated group of 4-6 animals. Microfilaremia is determined on days 0 (just prior to the first dose), 4 and 56 post-treatment. Unless indicated otherwise, compounds are suspended in hydroxyethylcellulose (0.5%) - Tween 80 (0.1%) and administered SC at 100 mg/kg/day for 5 consecutive days. All jirds are killed on day 56 post-treatment to determine the effects of drugs on adults of A. viteae and B. pahangi. Live worms are identified as to species, noted as to sex, and counted. The number of dead and/or encapsulated worms is also recorded. A reduction of ≥80% in microfilaremia or ≥50% in adult worm burden (either species) compared with pre-treatment microfilaremia or non-treated control worm burden, respectively, is considered to be significant. For secondary testing with this dual infection screen, groups of 7 animals each are used. For oral dosing, drugs are dissolved or suspended in hydroxyethylcellulose - Tween 80 and administered by gavage.

[2] = tested on: Brugia pahangi; assay: Antifilarial effect in beagle dogs infected with Brugia pahangi; assay type: in vivo; details: for Dogs cured/Treated / Percent reduction Macrofilariae / Percent reduction Microfilariae: PO
From the text: The infective larvae of B. pahangi were produced and collected as described by McCall [J. Georgia Entomol. Soc. 16:283-293, (1981)]. The dogs were given 100 L3 of B. pahangi by subcutaneous injection (SC) into the dorsum of each hind paw or 200 L3 in one hind paw (i.e., a total inoculum of 200 L3 per dog).
The dogs were randomly allocated to treatment groups containing 4 dogs. The dogs were divided by sex and ranked by declining baseline microfilarial counts (average count based on the 5 bleedings made before the day of treatment). Those dogs which were amicrofilaremic or had very few microfilariae were excluded from the trial. Of the remaining dogs, those with the highest baseline microfilaremias were assigned to seven-dog replicates. The sex of the dogs within three of the replicates was the same, while the fourth replicate contained dogs of both sexes. The dogs of a given sex with the highest levels of microfilaremia were placed in the same replicate. The next set of dogs of that sex with the next highest levels of microfilaremia was assigned to the next replicate, and so on until all of the replicates were filled. The dogs within each complete replicate were assigned to test groups using a table of random numbers [Ostle and Mensing, Statistics in Research, Third Edition, Iowa State University Press, Ames, Iowa, pp. 560-563, (1975)]. The test groups were likewise assigned to either control or treatment groups using the table of random numbers.
The first day of treatment, day 0, was approximately 144 days after infection. Drugs were administered orally as a 10% suspension in HEC-Tween 80 or in soft gelatin capsules. Drugs were administered intramuscularly or subcutaneously as a 10% suspension in peanut oil or in HEC-Tween 80. Groups of four dogs served in sham-treated controls in each experiment. All of the treatments were given by IM injection in the dorsal lumbar muscles.
All dogs were observed frequently during each day of treatment and daily throughout the remainder of the study for any signs of reactions. In addition, the hair was shaved at the injection sites to facilitate the observation of possible tissue irritation resulting from treatment.
Blood was collected from each dog on days 51, 43, 27, 19, and 5 before treatment to determine baseline microfilaremias and allocate the dogs to treatment groups. Blood was then collected from all dogs on the day before treatment on day -1, on days 7, 10, 14, 21, 28, 35, 42, 49, and 56 days after treatment. All bleedings were done at approximately the same time of day (11:00-12:00 E.S.T.). Two 20-μl blood films were prepared from each sample and stained with giemsa. Microfilarial counts were made from the 2 blood films.
The dogs were euthanized for necropsy either two or six months after the first day of treatment. Just prior to euthanasia, the dogs were given a subcutaneous injection (SC) of a two percent solution of Evans blue into the dorsum of both hind paws in order to help delineate the lymphatic vessels. This was followed at least 30 minutes later with a lethal dose of Fatal-Plus® (Vortech Pharmaceuticals, Dearborn, Mich.). A limited necropsy was performed on each dog with examination of the afferent and efferent lymphatics of both hindlimbs and the popliteal, inguinal, internal and external iliac, and lumbar lymph nodes. Any live or dead worms seen were removed. These vessels and lymph nodes were removed, teased, and soaked overnight in normal saline to allow any worms to migrate out of the tissues. The condition of the worms, their sex and number, and the location from which they were recovered were noted.
Effectiveness against the adult parasites was determined as follows: [formula] Effectiveness against microfilariae for a given day after treatment was determined as follows: [formula]
The adult B. pahangi counts and the microfilarial counts were compared using a one way analysis of variance (ANOVA). […]

[3] = 50(34 free base) mg/kg/day bid × 5, gelatin capsules, not significantly different from control
[4] = 100(78 free base) mg/kg/day bid × 5, gelatin capsules
[5] = 200(155 free base) mg/kg/day bid × 5, HEC-Tween 80
[6] = 200(155 free base) mg/kg/day bid × 5, gelatin capsules

`COC(=O)Nc1nc2cc(C(N)c3ccc(F)cc3)ccc2[nH]1.Cl.Cl` (racemic) [Example 2, Methyl (±)-[5-[Amino(4Fluorophenyl)Methyl]-1H-Benzimidazol-2-yl]Carbamate Dihy drochloride Salt] was tested, and the “% Macrofilarial reduction, B. pahangi” value ([1]; 1.56 mg/kg/day × 5 days, SC, day 56) was 22%, the “% Macrofilarial reduction, B. pahangi” value ([1]; 3.13 mg/kg/day × 5 days, SC, day 56, 3.13 mg/kg/day) was 84% and 88% and the “% Macrofilarial reduction, B. pahangi” value ([1]; 6.25 mg/kg/day × 5 days, SC, day 56, 6.25 mg/kg/day) was 96% and 98%. The “% Macrofilarial reduction, B. pahangi” value ([1]; 12.5 mg/kg/day × 1 day, SC, day 56) was 72%, the “% Macrofilarial reduction, B. pahangi” value ([1]; 12.5 mg/kg/day × 5 days, SC, day 56) was 100% and the “% Macrofilarial reduction, B. pahangi” value ([1]; 25 mg/kg/day × 1 day, SC, day 56) was 100%. For the same molecule, the “% Macrofilarial reduction, B. pahangi” value ([1]; 25 mg/kg/day × 5 days, SC, day 56) was 100%, the “% Macrofilarial reduction, B. pahangi” value ([1]; 75 mg/kg/day × 5 days, oral, day 56) was 30% and the “% Macrofilarial reduction, B. pahangi” value ([1]; 100 mg/kg/day × 5 days, oral, day 56) was 32%. For the same molecule, the “Dogs cured/Treated” value ([2]; 50(34 free base) mg/kg/day bid × 5, gelatin capsules) was 0/4, the “Percent reduction Macrofilariae” value [2, 3] was 71% and the “Percent reduction Microfilariae” value [2, 3] was 89%. The “Dogs cured/Treated” value [2, 4] was 0/4, the “Percent reduction Microfilariae” value [2, 4] was 86% and the “Percent reduction Macrofilariae” value ([2]; 100(78 free base) mg/kg/day bid × 5, gelatin capsules, not significantly different from control) was 23%. The “Percent reduction Macrofilariae” value ([2]; 200(155 free base) mg/kg/day bid × 1, HEC-Tween 80) was 97%, the “Dogs cured/Treated” value ([2]; 200(155 free base) mg/kg/day bid × 1, HEC-Tween 80, necropsied 6 months) was 1/3 and the “Percent reduction Microfilariae” value ([2]; 200(155 free base) mg/kg/day bid × 1, HEC-Tween 80, not significantly different from control) was 77%. For the same molecule, the “Percent reduction Macrofilariae” value ([2]; 200(155 free base) mg/kg/day bid × 3, HEC-Tween 80) was 90%, the “Dogs cured/Treated” value ([2]; 200(155 free base) mg/kg/day bid × 3, HEC-Tween 80, necropsied 6 months) was 0/3 and the “Percent reduction Microfilariae” value ([2]; 200(155 free base) mg/kg/day bid × 3, HEC-Tween 80, not significantly different from control) was 71%. The “Percent reduction Macrofilariae” value [2, 5] was 100%, the “Percent reduction Microfilariae” value [2, 5] was 100% and the “Dogs cured/Treated” value ([2]; 200(155 free base) mg/kg/day bid × 5, HEC-Tween 80, necropsied 6 months) was 3/3. For the same molecule, the “Percent reduction Macrofilariae” value [2, 6] was 99%, the “Percent reduction Microfilariae” value [2, 6] was 100% and the “Dogs cured/Treated” value ([2]; 200(155 free base) mg/kg/day bid × 5, gelatin capsules, necropsied 6 months) was 5/6. For the same molecule, the “Percent reduction Macrofilariae” value ([2]; 200(155 free base) mg/kg/day × 1, HEC-Tween 80) was 79%, the “Dogs cured/Treated” value ([2]; 200(155 free base) mg/kg/day × 1, HEC-Tween 80, necropsied 6 months) was 1/3 and the “Percent reduction Microfilariae” value ([2]; 200(155 free base) mg/kg/day × 1, HEC-Tween 80, not significantly different from control) was 74%. For the same molecule, the “Percent reduction Macrofilariae” value ([2]; 200(155 free base) mg/kg/day × 3, HEC-Tween 80) was 97%, the “Dogs cured/Treated” value ([2]; 200(155 free base) mg/kg/day × 3, HEC-Tween 80, necropsied 6 months) was 1/3 and the “Percent reduction Microfilariae” value ([2]; 200(155 free base) mg/kg/day × 3, HEC-Tween 80, not significantly different from control) was 78%. The “cure of B. pahangi infections” value ([2]; oral, 200 mg/kg/day (155 base equivalent) for 1, 3 or 5 days) was “cured dogs of B. pahangi infections”.
